Measurements published in patent US5451581A, “Antibiotic LL-14E605β and O-methyl-LL-14E605β” (priority 1993, dated 1995).

What was measured:
Bacillus cereus (Bacto) = assay: In vitro antibacterial activity, standard agar dilution (MIC); type: cell-based; conditions: Mueller-Hinton agar, about 18 hours, approximately 35° C.
Description: (§1) The in vitro antibacterial activity of LL-14E605β and O-methyl-LL-14E605β is determined against a spectrum of gram positive and gram-negative bacteria by a standard agar dilution method. Mueller-Hinton agar containing two fold decreasing concentrations of the antibiotics is poured into petri plates. The agar surfaces are inoculated with 1 to 5×10^4 colony forming units of bacteria by means of a Steer's replicating device. The lowest concentration of the LL-14E605 antibiotics that inhibits growth of a bacterial strain after about 18 hours of incubation at approximately 35° C. is recorded as the minimal inhibitory concentration (MIC) for that strain.

[1] = system: Enterococcus avium (ID-3953); assay: as above; type: cell-based; conditions: Mueller-Hinton agar, about 18 hours, approximately 35° C.
Description: as §1

[2] = system: Enterococcus faecalis (12201); assay: as above; type: cell-based; conditions: Mueller-Hinton agar, about 18 hours, approximately 35° C.
Description: as §1

[3] = system: Enterococcus faecalis (ATCC 29212); assay: as above; type: cell-based; conditions: Mueller-Hinton agar, about 18 hours, approximately 35° C.
Description: as §1

[4] = system: Enterococcus faecalis (ID-1829); assay: as above; type: cell-based; conditions: Mueller-Hinton agar, about 18 hours, approximately 35° C.
Description: as §1

[5] = system: Enterococcus faecalis (ID-2131); assay: as above; type: cell-based; conditions: Mueller-Hinton agar, about 18 hours, approximately 35° C.
Description: as §1

[6] = system: Enterococcus faecalis (ID-4168); assay: as above; type: cell-based; conditions: Mueller-Hinton agar, about 18 hours, approximately 35° C.
Description: as §1

[7] = system: Enterococcus faecium (12202); assay: as above; type: cell-based; conditions: Mueller-Hinton agar, about 18 hours, approximately 35° C.
Description: as §1

[8] = system: Enterococcus faecium (ID-3301); assay: as above; type: cell-based; conditions: Mueller-Hinton agar, about 18 hours, approximately 35° C.
Description: as §1

[9] = system: Enterococcus faecium (ID-4133); assay: as above; type: cell-based; conditions: Mueller-Hinton agar, about 18 hours, approximately 35° C.
Description: as §1

[10] = system: Escherichia coli (ATCC 25922); assay: as above; type: cell-based; conditions: Mueller-Hinton agar, about 18 hours, approximately 35° C.
Description: as §1

Escherichia coli (J2175) = assay: as above; type: cell-based; conditions: Mueller-Hinton agar, about 18 hours, approximately 35° C.
Description: as §1

Escherichia coli (J2445) = assay: as above; type: cell-based; conditions: Mueller-Hinton agar, about 18 hours, approximately 35° C.
Description: as §1

[11] = system: Micrococcus luteus (ATCC 9341); assay: as above; type: cell-based; conditions: Mueller-Hinton agar, about 18 hours, approximately 35° C.
Description: as §1

[12] = system: Morganella morganii (VGH 84-11); assay: as above; type: cell-based; conditions: Mueller-Hinton agar, about 18 hours, approximately 35° C.
Description: as §1

[13] = system: Pseudomanas aeruginosa (ATCC 27853); assay: as above; type: cell-based; conditions: Mueller-Hinton agar, about 18 hours, approximately 35° C.
Description: as §1

[14] = system: Staphylococcus aureus (4379); assay: as above; type: cell-based; conditions: Mueller-Hinton agar, about 18 hours, approximately 35° C.
Description: as §1

[15] = system: Staphylococcus aureus (ATCC 29213); assay: as above; type: cell-based; conditions: Mueller-Hinton agar, about 18 hours, approximately 35° C.
Description: as §1

[16] = system: Staphylococcus aureus (ID-2371); assay: as above; type: cell-based; conditions: Mueller-Hinton agar, about 18 hours, approximately 35° C.
Description: as §1

[17] = system: Staphylococcus aureus (ID-2727); assay: as above; type: cell-based; conditions: Mueller-Hinton agar, about 18 hours, approximately 35° C.
Description: as §1

[18] = system: Staphylococcus aureus (ID-3105); assay: as above; type: cell-based; conditions: Mueller-Hinton agar, about 18 hours, approximately 35° C.
Description: as §1

[19] = system: Staphylococcus aureus (NEMC-89-4); assay: as above; type: cell-based; conditions: Mueller-Hinton agar, about 18 hours, approximately 35° C.
Description: as §1

[20] = system: Staphylococcus aureus (SMITH); assay: as above; type: cell-based; conditions: Mueller-Hinton agar, about 18 hours, approximately 35° C.
Description: as §1

[21] = system: Staphylococcus hemolyticus (ID 4061); assay: as above; type: cell-based; conditions: Mueller-Hinton agar, about 18 hours, approximately 35° C.
Description: as §1

[22] = system: Staphylococcus, coagiuase negative (ID-4615); assay: as above; type: cell-based; conditions: Mueller-Hinton agar, about 18 hours, approximately 35° C.
Description: as §1

[23] = system: Staphylococcus, coagluase negative (ID-3120); assay: as above; type: cell-based; conditions: Mueller-Hinton agar, about 18 hours, approximately 35° C.
Description: as §1

[24] = system: Staphylococcus, coagluase negative (ID-3135); assay: as above; type: cell-based; conditions: Mueller-Hinton agar, about 18 hours, approximately 35° C.
Description: as §1

[25] = system: Staphylococcus, coagluase negative (ID-3276); assay: as above; type: cell-based; conditions: Mueller-Hinton agar, about 18 hours, approximately 35° C.
Description: as §1

[26] = system: Staphylococcus, coagluase negative (ID-3941); assay: as above; type: cell-based; conditions: Mueller-Hinton agar, about 18 hours, approximately 35° C.
Description: as §1

[27] = Relative activity of the components of the LL-14E605 complex; conditions: listed as LL-14E605β

Row | Compound | Minimal Inhibitory Concentration (MIC) (Bacillus cereus (Bacto)) | Minimal Inhibitory Concentration (MIC) [1] | Minimal Inhibitory Concentration (MIC) [2] | Minimal Inhibitory Concentration (MIC) [3] | Minimal Inhibitory Concentration (MIC) [4] | Minimal Inhibitory Concentration (MIC) [5] | Minimal Inhibitory Concentration (MIC) [6] | Minimal Inhibitory Concentration (MIC) [7] | Minimal Inhibitory Concentration (MIC) [8] | Minimal Inhibitory Concentration (MIC) [9] | Minimal Inhibitory Concentration (MIC) [10] | Minimal Inhibitory Concentration (MIC) (Escherichia coli (J2175)) | Minimal Inhibitory Concentration (MIC) (Escherichia coli (J2445)) | Minimal Inhibitory Concentration (MIC) [11] | Minimal Inhibitory Concentration (MIC) [12] | Minimal Inhibitory Concentration (MIC) [13] | Minimal Inhibitory Concentration (MIC) [14] | Minimal Inhibitory Concentration (MIC) [15] | Minimal Inhibitory Concentration (MIC) [16] | Minimal Inhibitory Concentration (MIC) [17] | also measured
1 | COC(C)=C1NC(=O)C(C(C)O)NC(=O)c2csc(n2)-c2cc(O)c(-c3nc(C(N)=O)cs3)nc2-c2csc(n2)C2CSC(=O)c3[nH]c4cccc5c4c3COC(C(OC3CC(C)(O)C(N(C)C)C(C)O3)C(=O)OC5)C(NC(=O)c3csc1n3)c1nc(cs1)C(=O)N2 (stereo not drawn) [LL-14E605-beta] | 0.06 mg/L | 0.002 mg/L | 0.015 mg/L | 0.015 mg/L | 0.002 mg/L | 0.015 mg/L | 0.015 mg/L | 0.004 mg/L | 0.015 mg/L | ≤ 0.005 mg/L | > 64 mg/L | > 64 mg/L | 0.06 mg/L | 0.002 mg/L | > 64 mg/L | > 64 mg/L | 0.015 mg/L | 0.015 mg/L | 0.015 mg/L | 0.008 mg/L | Minimal Inhibitory Concentration (MIC) [18]: 0.015 mg/L; Minimal Inhibitory Concentration (MIC) [19]: 0.015 mg/L; Minimal Inhibitory Concentration (MIC) [20]: 0.008 mg/L; Minimal Inhibitory Concentration (MIC) [21]: 0.03 mg/L; Minimal Inhibitory Concentration (MIC) [22]: 0.015 mg/L; Minimal Inhibitory Concentration (MIC) [23]: 0.06 mg/L; Minimal Inhibitory Concentration (MIC) [24]: 0.03 mg/L; Minimal Inhibitory Concentration (MIC) [25]: 0.008 mg/L; Minimal Inhibitory Concentration (MIC) [26]: 0.06 mg/L; activity relative to the other components of the LL-14E605 complex [27]: most active component of the LL-14E605 complex
2 | COC(C)=C1NC(=O)C(C(C)O)NC(=O)c2csc(n2)-c2cc(OC)c(-c3nc(C(N)=O)cs3)nc2-c2csc(n2)C2CSC(=O)c3[nH]c4cccc5c4c3COC(C(OC3CC(C)(O)C(N(C)C)C(C)O3)C(=O)OC5)C(NC(=O)c3csc1n3)c1nc(cs1)C(=O)N2 [O-methyl-L-14E605beta] | 0.5 mg/L | 8 mg/L | 4 mg/L | 8 mg/L | 8 mg/L | 4 mg/L | 8 mg/L | 8 mg/L | 8 mg/L | 8 mg/L | > 32 mg/L | > 32 mg/L | > 32 mg/L | 0.5 mg/L | > 32 mg/L | > 32 mg/L | 0.25 mg/L | 0.25 mg/L | 0.5 mg/L | 0.25 mg/L | Minimal Inhibitory Concentration (MIC) [18]: 0.25 mg/L; Minimal Inhibitory Concentration (MIC) [19]: 0.5 mg/L; Minimal Inhibitory Concentration (MIC) [20]: 0.25 mg/L; Minimal Inhibitory Concentration (MIC) [21]: 1 mg/L; Minimal Inhibitory Concentration (MIC) [22]: 0.25 mg/L; Minimal Inhibitory Concentration (MIC) [23]: 1 mg/L; Minimal Inhibitory Concentration (MIC) [24]: 1 mg/L; Minimal Inhibitory Concentration (MIC) [25]: 0.5 mg/L; Minimal Inhibitory Concentration (MIC) [26]: 4 mg/L
